In the supplement of paper PMC4932681:
“And” between values parts separate entries of the source, which are not always exact repeats. Identical values can stand only once. Counter-ions that a name gives are not always drawn.

How the values were obtained:
BT-474 Tam1 [1] = assay: drug sensitivity score (DSS) (DSS (dimensionless)); higher = more sensitive; extreme values may be limits of the assay; settings: 4-OH-tamoxifen in medium 1 µM; 72 h
Summary of the method: (§1)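 CellTiter-Glo viability was the readout, taken on a PHERAstar and normalised to vehicle-only and positive controls. It was measured after breast cancer cell lines and their resistant derivatives spent 72 h at 37 °C in 384-well plates containing library drugs at five concentrations spanning a 10 000-fold range, with 1 μM of the selecting drug in the medium of resistant lines. From logistic dose–response fits in the Breeze pipeline came drug sensitivity score, relative IC50 (curve midpoint) and top-dose inhibition.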

BT-474 Tam2 [2] = assay: as above; settings: 4-OH-tamoxifen in medium 1 µM; 72 h
Summary of the method: as §1

BT-474 [3] = assay: as above; settings: 72 h
Summary of the method: as §1

MCF-7 Tam1 [4] = assay: as above; settings: 4-OH-tamoxifen in medium 1 µM; 72 h
Summary of the method: as §1

MCF-7 [5] = assay: as above; settings: 72 h
Summary of the method: as §1

T-47D Tam1 [6] = assay: as above; settings: 4-OH-tamoxifen in medium 1 µM; 72 h
Summary of the method: as §1

T-47D Tam2 [7] = assay: as above; settings: 4-OH-tamoxifen in medium 1 µM; 72 h
Summary of the method: as §1

T-47D [8] = assay: as above; settings: 72 h
Summary of the method: as §1

ZR-75-1 Tam1 [9] = assay: as above; settings: 4-OH-tamoxifen in medium 1 µM; 72 h
Summary of the method: as §1

ZR-75-1 Tam2 [10] = assay: as above; settings: 4-OH-tamoxifen in medium 1 µM; 72 h
Summary of the method: as §1

ZR-75-1 [11] = assay: as above; settings: 72 h
Summary of the method: as §1

BT-474 Tam2 [12] = assay: relative IC50 (midpoint of fitted logistic curve, plateau may be below 50% inhibition; CellTiter-Glo viability); higher = less potent; settings: 4-OH-tamoxifen in medium 1 µM; 72 h
Summary of the method: as §1

BT-474 [13] = assay: as above; settings: 72 h
Summary of the method: as §1

MCF-7 Tam1 [14] = assay: as above; settings: 4-OH-tamoxifen in medium 1 µM; 72 h
Summary of the method: as §1

T-47D Tam1 [15] = assay: as above; settings: 4-OH-tamoxifen in medium 1 µM; 72 h
Summary of the method: as §1

T-47D Tam2 [16] = assay: as above; settings: 4-OH-tamoxifen in medium 1 µM; 72 h
Summary of the method: as §1

T-47D [17] = assay: as above; settings: 72 h
Summary of the method: as §1

ZR-75-1 Tam1 [18] = assay: as above; settings: 4-OH-tamoxifen in medium 1 µM; 72 h
Summary of the method: as §1

ZR-75-1 Tam2 [19] = assay: as above; settings: 4-OH-tamoxifen in medium 1 µM; 72 h
Summary of the method: as §1

ZR-75-1 [20] = assay: as above; settings: 72 h
Summary of the method: as §1

BT-474 Tam1 [21] = assay: as above; settings: 4-OH-tamoxifen in medium 1 µM; 72 h
Summary of the method: as §1

MCF-7 [22] = assay: as above; settings: 72 h
Summary of the method: as §1

Structure (SMILES)	drug sensitivity score (BT-474 Tam1 [1])	drug sensitivity score (BT-474 Tam2 [2])	drug sensitivity score (BT-474 [3]; 4-OH-tamoxifen in medium 0 µM)	drug sensitivity score (BT-474 [3]; 4-OH-tamoxifen in medium 1 µM)	drug sensitivity score (MCF-7 Tam1 [4])	drug sensitivity score (MCF-7 [5]; 4-OH-tamoxifen in medium 0 µM)	drug sensitivity score (MCF-7 [5]; 4-OH-tamoxifen in medium 1 µM)	drug sensitivity score (T-47D Tam1 [6])	drug sensitivity score (T-47D Tam2 [7])	drug sensitivity score (T-47D [8]; 4-OH-tamoxifen in medium 0 µM)	drug sensitivity score (T-47D [8]; 4-OH-tamoxifen in medium 1 µM)	drug sensitivity score (ZR-75-1 Tam1 [9])	drug sensitivity score (ZR-75-1 Tam2 [10])	drug sensitivity score (ZR-75-1 [11]; 4-OH-tamoxifen in medium 0 µM)	drug sensitivity score (ZR-75-1 [11]; 4-OH-tamoxifen in medium 1 µM)	relative IC50 (BT-474 Tam2 [12])	relative IC50 (BT-474 [13]; 4-OH-tamoxifen in medium 0 µM)	relative IC50 (BT-474 [13]; 4-OH-tamoxifen in medium 1 µM)	relative IC50 (MCF-7 Tam1 [14])	relative IC50 (T-47D Tam1 [15])	relative IC50 (T-47D Tam2 [16])	relative IC50 (T-47D [17]; 4-OH-tamoxifen in medium 0 µM)	relative IC50 (T-47D [17]; 4-OH-tamoxifen in medium 1 µM)	relative IC50 (ZR-75-1 Tam1 [18])	relative IC50 (ZR-75-1 Tam2 [19])	relative IC50 (ZR-75-1 [20]; 4-OH-tamoxifen in medium 0 µM)	relative IC50 (ZR-75-1 [20]; 4-OH-tamoxifen in medium 1 µM)	relative IC50 (BT-474 Tam1 [21])	relative IC50 (MCF-7 [22]; 4-OH-tamoxifen in medium 0 µM)	relative IC50 (MCF-7 [22]; 4-OH-tamoxifen in medium 1 µM)
O=NN(CCCl)C(=O)NC1CCCCC1 [Lomustine]	0	0	0	0	0	0.0319	0.0924	0	0	0	0	0	0	0	0	> 10000 nM	> 10000 nM	> 10000 nM	> 10000 nM	> 10000 nM	> 10000 nM	> 10000 nM	> 10000 nM	> 10000 nM	> 10000 nM	> 10000 nM	> 10000 nM			
C[C@]12C=CC(=O)C=C1CC[C@@H]1[C@@H]2[C@@H](O)C[C@@]2(C)[C@H]1CC[C@]2(O)C(=O)CO [Prednisolone]	0	0	0	0	0	0.324	0.407	0	0	0	0	0	0	0	0	> 10000 nM	> 10000 nM	> 10000 nM	> 10000 nM	> 10000 nM	> 10000 nM	> 10000 nM	> 10000 nM	> 10000 nM	> 10000 nM	> 10000 nM	> 10000 nM	> 10000 nM		
Cn1nnc2c(C(N)=O)ncn2c1=O [Temozolomide]	0.313	0	0	0	0	0	0	0	0	0	0	0	0	0.0165	0	> 10000 nM	> 10000 nM	> 10000 nM	> 10000 nM	> 10000 nM	> 10000 nM	> 10000 nM	> 10000 nM	> 10000 nM	> 10000 nM		> 10000 nM		> 10000 nM	> 10000 nM
Cc1cc2c(F)c(Oc3ncnn4cc(OC[C@@H](C)O)c(C)c34)ccc2[nH]1 [Brivanib]	0	0	0	0	0	0	0	0	0	0	0	0	0	0	0	> 1000 nM	> 1000 nM	> 1000 nM	> 1000 nM	> 1000 nM	> 1000 nM	> 1000 nM	> 1000 nM	> 1000 nM	> 1000 nM	> 1000 nM	> 1000 nM		> 1000 nM	> 1000 nM
COc1cccc2c1C(=O)c1c(O)c3c(c(O)c1C2=O)C[C@@](O)(C(=O)CO)C[C@@H]3O[C@H]1C[C@H](N)[C@H](O)[C@H](C)O1 [Doxorubicin]	2.96	0.115	3	3.73	2.46	5.29	3.47	6.83	4.23	6.88	3.36	4.65	7.21	4.96	6.3		374 nM	424 nM	387 nM	171 nM	300 nM	154 nM	396 nM	286 nM	144 nM	199 nM	214 nM	399 nM	247 nM	331 nM
Cc1cnc(NC(=O)Nc2cc(Br)c(C)cc2OC[C@@H]2CNCCO2)cn1	0	0	0	0	0	2.37	0.181	0	0	0	0	0	0	0	0	> 1000 nM	> 1000 nM	> 1000 nM	> 1000 nM	> 1000 nM	> 1000 nM	> 1000 nM	> 1000 nM	> 1000 nM	> 1000 nM	> 1000 nM	> 1000 nM	> 1000 nM		
COc1cc(CCc2cc(NC(=O)c3ccc(N4CC(C)NC(C)C4)cc3)n[nH]2)cc(OC)c1 (configuration not stated) [AZD4547]	0	0	0	0	0	0	0	0	0	0	0	0	0	0	0	> 1000 nM	> 1000 nM	> 1000 nM	> 1000 nM	> 1000 nM	> 1000 nM	> 1000 nM	> 1000 nM	> 1000 nM	> 1000 nM	> 1000 nM	> 1000 nM		> 1000 nM	> 1000 nM
CNC(=O)c1cc(Oc2ccc(NC(=O)Nc3ccc(Cl)c(C(F)(F)F)c3)cc2)ccn1 [Sorafenib]	0.0104	0	0	0	0	0	0	0	0	0	0	0	0	0	0	> 1000 nM	> 1000 nM	> 1000 nM	> 1000 nM	> 1000 nM	> 1000 nM	> 1000 nM	> 1000 nM	> 1000 nM	> 1000 nM	> 1000 nM	> 1000 nM		> 1000 nM	> 1000 nM
O=C(Nc1c[nH]nc1-c1nc2ccc(CN3CCOCC3)cc2[nH]1)NC1CC1 [AT9283]	0	0	0	0	0	0	0	0	0	0	0	0	0	0	0		> 1000 nM	> 1000 nM	> 1000 nM	> 1000 nM	> 1000 nM	> 1000 nM	> 1000 nM	> 1000 nM	> 1000 nM	> 1000 nM	> 1000 nM	> 1000 nM	> 1000 nM	> 1000 nM
Cc1nc(Nc2ncc(C(=O)Nc3c(C)cccc3Cl)s2)cc(N2CCN(CCO)CC2)n1 [Dasatinib]	2.9 and 1.26		0	0	0			8.54 and 7.6	8.11 and 4.97	0		0	0	0	0	> 1000 nM	> 1000 nM	> 1000 nM	> 1000 nM	10.3 nM and 10.7 nM	9.43 nM and 16.4 nM	> 1000 nM	41.6 nM	> 1000 nM	> 1000 nM	> 1000 nM	> 1000 nM	130 nM and 374 nM	> 1000 nM	> 1000 nM
O=C(/C=C/c1cccnc1)NCCCCC1CCN(C(=O)c2ccccc2)CC1 [Daporinad (FK-866 HCl)]	5.63	1.29	0	8.73	0	15.8	10.4	27.2	18.9	24.1	20.7	0	0	0	0			74.3 nM	> 1000 nM	3.87 nM	14.7 nM	7.21 nM	13.2 nM	> 1000 nM	> 1000 nM	> 1000 nM	> 1000 nM	94.3 nM	19 nM	54.1 nM
CC[C@@H]1C(=O)OC[C@@H]1Cc1cncn1C [Pilocarpine]	0	0	0	0	0	0	0	0	0	0	0	0	0	0	0		> 40000 nM	> 40000 nM	> 40000 nM	> 40000 nM	> 40000 nM	> 40000 nM	> 40000 nM	> 40000 nM	> 40000 nM	> 40000 nM	> 40000 nM	> 40000 nM	> 40000 nM	> 40000 nM
COc1cc2c(Oc3ccc4[nH]c(C)cc4c3F)ncnc2cc1OCCCN1CCCC1 [Cediranib (AZD2171, Recentin)]	0.271	0	0	2.04	0	0.0072	0	0	0	0	0.609	0	0	0	0	> 1000 nM	> 1000 nM	304 nM	> 1000 nM	> 1000 nM	> 1000 nM	> 1000 nM		> 1000 nM	> 1000 nM	> 1000 nM	> 1000 nM			> 1000 nM
Cc1cn(-c2cc(NC(=O)c3ccc(C)c(Nc4nccc(-c5cccnc5)n4)c3)cc(C(F)(F)F)c2)cn1 [Nilotinib]	1.63	0	0	0	0	0	0	0	0	0	0	0	0	0	0	> 10000 nM	> 10000 nM	> 10000 nM	> 10000 nM	> 10000 nM	> 10000 nM	> 10000 nM	> 10000 nM	> 10000 nM	> 10000 nM	> 10000 nM	> 10000 nM		> 10000 nM	> 10000 nM
C[C@@]1(C(=O)Nc2ccc(F)nc2)CCCN1c1nc(Nc2cc(C3CC3)n[nH]2)c2cccn2n1	0.49	0	0.215	0.473	13.2	17.7	21	4.88	6.16	5.37	7.74	0	0	0	0	> 10000 nM			197 nM	1160 nM	1140 nM	921 nM	210 nM	> 10000 nM	> 10000 nM	> 10000 nM	> 10000 nM		78.9 nM	80.2 nM
